Results published in publication PMC8317940, “Strained contacts with the cell membrane may influence ligand affinity to G protein coupled receptors: a case of free fatty acid receptor 1 agonists” (Journal of Enzyme Inhibition and Medicinal Chemistry, 2021).

Target: T1, free fatty acid receptor 1 (FFA1, GPR40) (Homo sapiens, UniProt O14842)
T1 construct: gene FFAR1
Experiment: calcium flux (FLIPR) agonist assay in CHO cells stably expressing human FFA1
Type: cell-based

T1 sequence (O14842 whole entry): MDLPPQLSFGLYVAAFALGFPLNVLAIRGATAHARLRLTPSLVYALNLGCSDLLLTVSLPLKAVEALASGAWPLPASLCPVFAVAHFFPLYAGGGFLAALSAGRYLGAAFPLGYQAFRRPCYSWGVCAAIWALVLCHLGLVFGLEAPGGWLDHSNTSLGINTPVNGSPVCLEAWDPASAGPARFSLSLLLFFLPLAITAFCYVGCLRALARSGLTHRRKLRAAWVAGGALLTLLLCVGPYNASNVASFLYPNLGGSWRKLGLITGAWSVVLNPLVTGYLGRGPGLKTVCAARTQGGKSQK

Row | EC50 | Structure (SMILES)
1 | 1860 nM | O=C(O)CCc1nnc(C(=O)Nc2ccc(-c3cccc(C(F)(F)F)c3)cc2)s1 [2e, 3-[5-({[3′-(Trifluoromethyl)biphenyl-4-yl]amino}carbonyl)-1,3,4-thiadiazol-2-yl]propanoic acid]
2 | 1350 nM | COc1cccc(-c2ccc(NC(=O)c3nnc(CCC(=O)O)s3)cc2)c1 [2g, 3-(5-{[(3′-Methoxybiphenyl-4-yl)amino]carbonyl}-1,3,4-thiadiazol-2-yl)propanoic acid]
3 | 1250 nM | O=C(O)CCc1nnc(C(=O)Nc2cccc(-c3ccc(OC(F)(F)F)cc3)c2)s1 [2c, 3-[5-({[4′-(Trifluoromethoxy)biphenyl-3-yl]amino}carbonyl)-1,3,4-thiadiazol-2-yl]propanoic acid]
4 | 1320 nM | O=C(O)CCc1nnc(C(=O)Nc2cccc(-c3ccc(Cl)cc3)c2)s1 [2a, 3-(5-{[(4′-Chlorobiphenyl-3-yl)amino]carbonyl}-1,3,4-thiadiazol-2-yl)propanoic acid]
